Experimental data published in article PMC12292862 (Biomedicines, 2025).
Entries after “also recorded” stand apart in the source; their conditions may differ.

Key:
rat paw tissue = test: Histomorphometry lesion scores of paw tissue sections; type: in vivo; conditions: vs carrageenan group; for inflammation scores: Figure 11A; for total lesion scores: Figure 11D
bovine serum albumin = bovine serum albumin (Bos taurus, UniProt P02769); test: Bovine serum albumin denaturation inhibition assay; conditions: 50–1000 µg/mL; Figure 2A; result in words
Sequence of bovine serum albumin (P02769 25-607): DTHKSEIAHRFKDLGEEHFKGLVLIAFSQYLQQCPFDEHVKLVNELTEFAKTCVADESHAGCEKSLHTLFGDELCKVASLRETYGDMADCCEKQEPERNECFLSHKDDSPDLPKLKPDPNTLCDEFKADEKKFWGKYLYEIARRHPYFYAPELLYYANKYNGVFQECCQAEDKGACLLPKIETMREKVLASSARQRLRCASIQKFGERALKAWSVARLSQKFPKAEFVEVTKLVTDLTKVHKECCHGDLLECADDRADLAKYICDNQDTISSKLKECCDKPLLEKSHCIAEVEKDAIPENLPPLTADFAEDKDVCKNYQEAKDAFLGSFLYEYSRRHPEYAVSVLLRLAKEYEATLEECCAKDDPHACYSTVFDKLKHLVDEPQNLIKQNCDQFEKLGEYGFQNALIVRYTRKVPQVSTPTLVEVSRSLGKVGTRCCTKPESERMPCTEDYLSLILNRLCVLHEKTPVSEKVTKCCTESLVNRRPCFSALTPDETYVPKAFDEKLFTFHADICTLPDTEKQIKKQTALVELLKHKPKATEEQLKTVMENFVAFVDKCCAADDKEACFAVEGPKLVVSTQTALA
Description: A bovine serum albumin assay was conducted using the previously mentioned technique. Synthesized compounds were dissolved in 2% Tween 80 saline solution (v/v) to create a solution at different doses of 50, 100, 200, 400, 800, and 1000 μg/mL. To prepare the test control sample (0.5 mL), 0.45 mL of 5% w/v bovine serum albumin was dissolved in 0.05 mL of distilled water. A product control solution was made by mixing 0.45 mL of Tween 80 with 0.50 mL of the test sample. 0.45 mL of bovine serum albumin and 0.50 mL of synthesized compounds made up the […] test solution. […] A pH of 6.3 was adjusted using 1 N HCl. Every solution was heated for 3 min at 60 °C after being kept at 37 °C for 20 min. Samples were then allowed to cool, and their absorbance at 660 nm was measured. Three duplicates of the procedure were carried out, and the percentage inhibition of denaturation of the bovine serum albumin was calculated using the following formula:%Inhibition = ((Absorbance Control − Absorbance Sample)/(Absorbance control)) × 100.

egg albumin = test: Egg albumin protein denaturation inhibition assay; conditions: 50–1000 µg/mL; Figure 2B; result in words
Description: To determine the egg albumin protein denaturation inhibition assay, the previously mentioned approach was used. Egg albumin (0.2 mL), 2.8 mL of phosphate-buffered saline (pH 6.4), and 2 mL of synthesized compound solutions in various concentrations were added to 5 mL of reaction mixture for this experiment. […] The reaction solutions were heated to 37 °C for 15 min, then to 70 °C for 5 min. After cooling, the absorbance of the solutions was measured at 660 nm. The experiment was conducted in triplicate, and the percentage inhibition of denaturation of the protein was calculated using the following formula:%Inhibition = ((Absorbance Control − Absorbance Sample)/(Absorbance control)) × 100.

Structure (SMILES)	inflammation scores (rat paw tissue)	total lesion scores (rat paw tissue)	inhibition of bovine serum albumin denaturation (bovine serum albumin)	inhibition of egg albumin protein denaturation (egg albumin)	inflammation scores (rat paw tissue; listed as compound 3)	edema scores (rat paw tissue; Figure 11B)	vascular alteration scores (rat paw tissue; Figure 11C)
NC1=NC2(CCCCCC2)n2nc(C(=O)Nc3ccc(S(N)(=O)=O)cc3)nc2N1 [Compound 1, 5′-Amino-N-(4-sulfamoylphenyl). -1′H-spiro[cycloheptane-1,7′-[1,2,4]triazolo[1,5-a][1,3,5] -triazine] -2′-carboxamide]	significantly reduced inflammation scores	reduced total lesion scores significantly					
CC1(C)CC(=O)CC2(C1)N=C(N)Nc1nc(C(=O)Nc3ccc(S(N)(=O)=O)cc3)nn12 (centres unmarked) [Compound 2]			moderate inhibition; also recorded: superior percentage inhibition of protein denaturation	moderate inhibition; also recorded: superior percentage inhibition of protein denaturation			
NC1=NC2(c3ccccc3Cc3ccccc32)n2nc(C(=O)Nc3ccc(S(N)(=O)=O)cc3)nc2N1 [Compound 3]	approaching those of the normal control group	reduced total lesion scores significantly; also recorded: comparable to the normal control group	highest protective effect; also recorded: superior percentage inhibition of protein denaturation	highest protective effect; also recorded: superior percentage inhibition of protein denaturation	significantly reduced inflammation scores	comparable to those of the control group	near-normal levels
